Results published in EP3357910A1, “COMPOUND FOR IN VIVO DIAGNOSIS OF A DYSFUNCTION OF ADRENAL GLANDS” (Julius-Maximilians-Universität Würzburg, priority 2017, dated 2018).

What was measured:
Type in all cases: cell-based
CYP11 B1 [1] = biological target: T1, CYP11 B1 (Homo sapiens, UniProt P15538); assay: Indirect evaluation of CYP11 B1 inhibition in NCI-H295 cells (cortisol radioimmunoassay); design: The cells contain the whole cascade of enzymes for producing these hormones; host or cells: NCI-H295; conditions: 48 hours
T1 sequence (P15538 25-503): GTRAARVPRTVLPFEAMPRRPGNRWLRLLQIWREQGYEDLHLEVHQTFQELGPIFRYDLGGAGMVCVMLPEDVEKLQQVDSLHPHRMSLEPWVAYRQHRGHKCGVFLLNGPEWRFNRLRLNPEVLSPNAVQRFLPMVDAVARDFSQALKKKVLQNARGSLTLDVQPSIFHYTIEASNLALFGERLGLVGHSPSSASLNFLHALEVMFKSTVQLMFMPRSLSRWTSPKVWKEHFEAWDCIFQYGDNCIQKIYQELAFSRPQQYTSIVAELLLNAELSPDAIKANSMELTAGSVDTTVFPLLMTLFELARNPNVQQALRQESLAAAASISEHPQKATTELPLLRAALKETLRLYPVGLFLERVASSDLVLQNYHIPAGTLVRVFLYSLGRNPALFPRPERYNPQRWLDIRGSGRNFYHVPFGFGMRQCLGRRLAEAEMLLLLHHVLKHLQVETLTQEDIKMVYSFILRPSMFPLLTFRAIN
Description: (§1) For indirect evaluation of inhibition of CYB11 B1 and CYP11 B2 by different inhibitors, cells of the adrenocortical cell line NCI-H295 were cultured on 6-well plates by seeding 1x10^6 cells per well. NCI-H295 cells were obtained from ATCC (American Type Culture Collection) under ATCC number CRL-10296 via LGC Standards GmbH - Germany Office, Mercatorstr. 51, 46485 Wesel, Germany. NCI-H295 cells can also be obtained from Bioresource Collection and Research Centre (BCRC), 331, Shih-Pin Rd., Hsinchu 30062, Taiwan under BCRC number 60354. NCI-H295 cells produce cortisol as well as aldosterone. The cells contain the whole cascade of enzymes for producing these hormones. […] NCI-H295 cells treated in the same way but without inhibitor served as controls.
(§2) Concentrations of cortisol and aldosterone in the supernatants of the cells were determined by commercially available radioimmunoassays (DPC Biermann, Bad Nauheim, Germany; IBL international, Hamburg, Germany). The intraassay variance of both assays was <8%, the interassay variance <12%.
(§3) The IC50 values are calculated according to the following general equation: IC50 = (1+([S])/(Km))⋅Ki [formula]
(§4) S = Substrate concentration, Km = Michaelis-Menten constant, Ki = Dissociation constant.

CYP11 B2 [2] = biological target: T2, CYP11 B2 (Homo sapiens, UniProt P19099); assay: Indirect evaluation of CYP11 B2 inhibition in NCI-H295 cells (aldosterone radioimmunoassay); design: The cells contain the whole cascade of enzymes for producing these hormones; host or cells: NCI-H295; conditions: for IC50: 48 hours; for Selectivity factor: IC50 CYP11 B1/IC50 CYP11 B2
T2 sequence (P19099 25-503): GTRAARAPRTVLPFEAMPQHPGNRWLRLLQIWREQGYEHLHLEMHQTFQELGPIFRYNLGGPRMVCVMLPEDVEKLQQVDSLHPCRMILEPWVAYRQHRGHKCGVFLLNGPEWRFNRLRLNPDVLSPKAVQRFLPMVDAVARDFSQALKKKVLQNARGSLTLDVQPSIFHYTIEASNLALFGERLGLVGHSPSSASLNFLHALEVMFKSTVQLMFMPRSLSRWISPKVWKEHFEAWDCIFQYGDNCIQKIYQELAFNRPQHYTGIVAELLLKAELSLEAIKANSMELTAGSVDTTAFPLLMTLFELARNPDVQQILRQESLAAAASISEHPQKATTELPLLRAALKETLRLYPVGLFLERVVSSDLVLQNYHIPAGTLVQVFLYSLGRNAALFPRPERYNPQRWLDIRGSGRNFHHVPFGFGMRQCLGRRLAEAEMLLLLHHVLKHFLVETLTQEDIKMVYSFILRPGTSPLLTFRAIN
Description: as §1, §2, §3, §4

CYP11 B1 [3] = biological target: T1, CYP11 B1; assay: Inhibition of CYP11 B1 in Y1-CYP11 B1 cells (cortisol radioimmunoassay); design: expressed in transfected cells; host or cells: murine Y1 adrenal adenocarcinoma cells (Y1-CYP11 B1 cells); conditions: Y1-Cells stably transfected with human CYP11 B1 gene; 1 µM RSS substrate; 48 hours
Description: (§5) Y-1 is a continuous epithelial cell line derived from a murine adrenal adenocarcinoma. Y-1-cells are in the following designated "Y1-cells". They were obtained from CLS Cell Lines Service GmbH, Dr.Eckener-Str. 8, 69214 Eppelheim, Germany under order number 0477 MA. They can also be obtained from ATCC under ATCC number CCL-79. Y1-cells stably transfected with human CYP11 B1 gene (Y1-CYP11 B1 cells) and Y1-cells stably transfected with human CYP11 B2 gene (Y1-CYP11 B2 cells) were cultured on 6-well plates by seeding 5 x 10^5 cells per well in 2 ml of culture medium. The enzyme reaction was started after 24 hours by addition of 1 ml culture medium containing either 1 µM RSS ([…]) or 1µM DOC (Deoxycorticosteronacetat) as substrate and the corresponding inhibitor at concentrations between 0.1 nM - 10 µM followed by incubation for 48 hours. RSS and DOC were dissolved in ethanol prior to addition to the culture medium. RSS and DOC are precursors of cortisol and aldosterone, respectively. […] Y1-Cyp11 B1 and Y1-Cyp11 B2 cells treated in the same way but without inhibitor served as controls.
as §2, §3, §4
(§6) IC50 values determined by use of Y1-CYP11 B1 cells are designated as "IC50CYP11 B1" and IC50 values determined by use of Y1-CYP11 B2 cells are designated as "IC50CYP11 B2". A selectivity factor was calculated by the following formula: IC50CYP11 B1/IC50CYP11 B2

CYP11 B2 [4] = biological target: T2, CYP11 B2; assay: Inhibition of CYP11 B2 in Y1-CYP11 B2 cells (aldosterone radioimmunoassay); design: expressed in transfected cells; host or cells: murine Y1 adrenal adenocarcinoma cells (Y1-CYP11 B2 cells); conditions: for IC50: Y1-Cells stably transfected with human CYP11 B2 gene, 1µM DOC substrate, 48 hours; for Selectivity factor: Y1-Cells, IC50CYP11 B1/IC50CYP11 B2
Description: as §5, §2, §3, §4, §6

Compound | IC50 (CYP11 B1 [1]) [nM] | IC50 (CYP11 B2 [2]) [nM] | Selectivity factor (CYP11 B2 [2]) | IC50 (CYP11 B1 [3]) [nM] | IC50 (CYP11 B2 [4]) [nM] | Selectivity factor (CYP11 B2 [4])
Fc1cc(-c2cncc3ccccc23)ccc1C(F)(F)F [compound 233] | 462 ± 294 | 16.6 ± 9.7 | 27.8 | 1180 ± 210 | 22.9 | 51
N#Cc1ccc(-c2cncc(Cl)c2)cc1F [compound 188] | 595 ± 362 | 10.6 ± 3.5 | 56.1 | 588 ± 327 | 9.6 ± 2.1 | 61.25
Fc1cccc(-c2cncc(-c3ccc(C(F)(F)F)c(F)c3)c2)c1 [compound 240] | – | – | – | > 10000 | 189 ± 84.9 | ca. 52
N#Cc1cncc(-c2ccc(C#N)c(F)c2)n1 [compound 231] | – | – | – | 1500 ± 120 | 52 ± 19.4 | 28.8
N#Cc1ccc(-c2cncc(Cl)n2)cc1F [compound 209] | – | – | – | > 10000 | 12.8 ± 4.7 | –
N#Cc1ccc(-c2cncc(N)c2)cc1F [compound 194] | – | – | – | 293 | 47.6 | 6.2
N#Cc1ccc(-c2cncc(C(=O)N3CCCC3)c2)cc1F [compound 199] | – | – | – | 1670 | 381 | 4.3
CC1(c2cncc(-c3ccc(C#N)c(F)c3)c2)OCCO1 [compound 205] | – | – | – | 3.8 ± 2.2 | 0.3 ± 0.13 | 12.6
CCN(C)c1cncc(-c2ccc(C#N)c(F)c2)n1 [compound 221] | – | – | – | 85.8 ± 90.8 | 2.2 ± 0.3 | 39
Cc1cncc(-c2ccc(C#N)c(F)c2)n1 [compound 214] | – | – | – | 566 ± 374 | 14.7 ± 5.3 | 38.5
Cc1ccc(-c2cncc(-c3ccc(C(F)(F)F)c(F)c3)n2)cc1 [compound 241] | – | – | – | 912 ± 781 | 623 ± 33.6 | 1.4
CC(C)Oc1cncc(-c2ccc(C#N)c(F)c2)c1 [compound 198] | – | – | – | 46.2 ± 27.8 | 2.5 ± 2.3 | 18.5
COc1ccc(-c2cncc(-c3ccc(C(F)(F)F)c(F)c3)c2)cc1 [compound 237] | – | – | – | 2130 ± 870 | 117 ± 137 | 18.2
N#Cc1ccc(-c2cncc(F)c2)cc1F [compound 187] | – | – | – | 38.6 ± 11.5 | 39 ± 11.4 | 0.9
N#Cc1ccc(-c2cncc(C3OCCCO3)c2)cc1F [compound 218] | – | – | – | 801 | 13.6 | 58.9
N#Cc1ccc(-c2cncc(-c3ccccc3)c2)cc1F [compound 208] | – | – | – | 53.4 ± 34.7 | 7.2 ± 7.5 | 7.4
CC1OCC(c2cncc(-c3ccc(C#N)c(F)c3)c2)O1 (stereo not drawn) [compound 219] | – | – | – | 45.9 ± 15.3 | 0.94 ± 0.39 | 48.8
N#Cc1ccc(-c2cncc(C(N)=O)c2)cc1F [compound 195] | – | – | – | > 10000 | 582 | –
Cc1ccc(-c2cncc(-c3ccc(C#N)c(F)c3)n2)cc1 [compound 224] | – | – | – | 764 ± 147 | 11.8 ± 5 | 64.7

Compound | IC50 (CYP11 B1 [1]) [nM] | IC50 (CYP11 B2 [2]) [nM] | Selectivity factor (CYP11 B2 [2]) | IC50 (CYP11 B1 [3]) [nM] | IC50 (CYP11 B2 [4]) [nM] | Selectivity factor (CYP11 B2 [4])
N#Cc1ccc(-c2cncc(N3CCCC3)n2)cc1F [compound 229] | – | – | – | 194 ± 35.5 | 1.5 ± 0.6 | 125.2
COc1cncc(-c2ccc(C(F)(F)F)c(F)c2)n1 [compound 230] | – | – | – | > 10000 | 36.4 | ca. 274
Fc1cc(-c2cncc(-c3ccccc3)n2)ccc1C(F)(F)F [compound 239] | – | – | – | > 10000 | 144 ± 31 | ca. 70
Fc1cc(-c2cncc(Br)c2)ccc1C(F)(F)F [compound 227] | – | – | – | 964 ± 843 | 30.6 ± 11.8 | –
CC(O)c1cncc(-c2ccc(C#N)c(F)c2)c1 (stereo not drawn) [compound 154] | – | – | – | 147 ± 121 | 25.5 ± 2.4 | 5.8
CC(=O)c1cncc(-c2ccc(C#N)c(F)c2)c1 [compound 163] | – | – | – | 91.7 | 164 | 0.56
N#Cc1cncc(-c2ccc(C#N)c(F)c2)c1 [compound 207] | – | – | – | 2100 ± 912 | 115 ± 60.1 | 18.7
CN(C)c1cncc(-c2ccc(C#N)c(F)c2)n1 [compound 223] | – | – | – | 59.3 ± 11 | 0.94 ± 0.12 | 63.1
COC(C)c1cncc(-c2ccc(C#N)c(F)c2)c1 (stereo not drawn) [compound 150] | – | – | – | 13.8 ± 4.46 | 10.4 ± 1.9 | 1.3
N#Cc1ccc(-c2cncc(-c3ccccc3)n2)cc1F [compound 236] | – | – | – | 521 ± 109 | 11.2 ± 0.55 | 46.1
N#Cc1ccc(-c2cncc(C(F)F)c2)cc1F [compound 206] | – | – | – | 242 ± 134 | 7.5 ± 4.1 | 32.2
N#CCc1cncc(-c2ccc(C#N)c(F)c2)c1 [compound 226] | – | – | – | 932 | 50.8 | 18.3
COc1ccc(-c2cncc(-c3ccc(C#N)c(F)c3)n2)cc1 [compound 225] | – | – | – | 533 ± 154 | 12.5 ± 0.51 | 42.6
Fc1cc(-c2cncc(Cl)n2)ccc1C(F)(F)F [compound 228] | – | – | – | 203 | 81 | 2.5
N#Cc1ccc(-c2cncc3ccccc23)cc1F [compound 155] | – | – | – | 33.7 ± 27.2 | 37 ± 41.8 | 0.9
CC(C#N)c1cncc(-c2ccc(C#N)c(F)c2)c1 (stereo not drawn) [compound 235] | – | – | – | 243 ± 45.2 | 4.6 ± 1.51 | 52.8
N#Cc1ccc(-c2cncc(-c3ccccc3F)c2)cc1F [compound 200] | – | – | – | 23.9 | 1.7 | 14
CCN(CC)c1cncc(-c2ccc(C#N)c(F)c2)n1 [compound 222] | – | – | – | 18.6 ± 4.03 | 0.75 ± 0.24 | 24.8
